{"source": "patent US20260137644A1", "about": "“COMPOSITIONS INCLUDING CAFFEIC ACID PHENETHYL ESTER” (XMK THERAPEUTICS INC., priority 2022, published 2026)", "origin": "cited, not measured here", "key": {"[1]": {"system": "carrageenin-induced inflammation"}, "NFAT": {"system": "NFAT", "conditions": "Jurkat cells"}}, "data": [{"smiles": "O=C(/C=C/c1ccc(O)c(O)c1)OCCc1ccccc1", "note": "[CAPE, 2-phenylethyl (E)-3-(3,4-dihydroxyphenyl)prop-2-enoate]", "values": [{"measurement": "exudate volume", "setting": "[1]", "result": "suppresses"}, {"measurement": "leukocytes relocation", "setting": "[1]", "result": "suppresses"}, {"measurement": "interleukin-2 (IL-2) gene transcription and synthesis", "setting": "interleukin-2 (IL-2)", "result": "inhibition"}, {"measurement": "binding with DNA and transcriptional activity of NFAT", "setting": "NFAT", "result": "inhibition"}, {"measurement": "antimicrobial activity", "setting": "Enterococcus faecalis", "result": "active"}, {"measurement": "antimicrobial activity", "setting": "Listeria monocytogenes", "result": "active"}, {"measurement": "antimicrobial activity", "setting": "Staphylococcus aureus", "result": "active"}, {"measurement": "antimicrobial activity", "setting": "Haemophilus influenzae", "result": "active"}]}]}
